Results published in patent US11566007B2, “Ras inhibitors” (Revolution Medicines, Inc., priority 2019, dated 2023).
Like-named read-outs stand apart in the source and are kept apart here.

What was measured:
[1] = biological target: NRAS Q61K (Homo sapiens (Human), UniProt P01111+P62937, Q61K); assay: Ras-Raf (BRAF RBD) disruption / FRET / MOA assay, NRAS Q61K; format: biochemical; details: NRAS Q61K; Ras-Raf disruption/FRET/MOA assay; read-out: IC50* NRAS Q61K FRET data
In short: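 TR-FRET disruption of nucleotide-loaded Ras binding to BRAF RBD via compound-driven ternary complex with cyclophilin A. Compound as 10-point 3-fold series from 30 μM final, 3 h at 25° C, then anti-His Eu-W1024 (10 nM) and anti-GST allophycocyanin (50 nM) for 1.5 h. IC50 from decreased FRET ratio versus DMSO.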

[2] = test system: NCI-H358 cells (K-Ras G12C); assay: Potency assay: pERK in NCI-H358 cells; format: cell-based, human; details: Homo sapiens
In short: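 4 h cpd, 37 °C; 10-pt 3-fold series, 10 mM DMSO top stock, duplicates. Readout pERK: AlphaLISA SureFire Ultra or In-Cell Western (IR-800CW secondary, DRAQ5 DNA stain). IC50, 4-PL fit vs log conc.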

[3] = NCI-H358, H358 KRAS G12C, read-out: pERK EC50

Sequence of NRAS Q61K (P01111 whole entry Q61K): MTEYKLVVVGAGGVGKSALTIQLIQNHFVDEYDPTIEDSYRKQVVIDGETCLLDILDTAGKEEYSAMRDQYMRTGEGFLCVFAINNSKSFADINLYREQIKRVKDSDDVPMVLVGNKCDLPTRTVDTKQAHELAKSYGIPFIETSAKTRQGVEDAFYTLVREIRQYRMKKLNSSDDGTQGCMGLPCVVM
Sequence of NRAS Q61K (P62937 whole entry): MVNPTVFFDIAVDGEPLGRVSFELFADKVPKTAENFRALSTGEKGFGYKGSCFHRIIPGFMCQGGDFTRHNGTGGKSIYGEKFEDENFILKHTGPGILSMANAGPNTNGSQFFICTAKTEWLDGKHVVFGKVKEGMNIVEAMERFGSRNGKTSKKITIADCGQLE

SMILES | IC50 [1] [µM] | EC50 [2, 3] [µM] | EC50 ([2]; NCI-H358, read-out: pERK EC50) [µM]
C=CC(=O)N1CCN(C(=O)N(C)[C@H](C(=O)N[C@H]2Cc3nc(cs3)-c3ccc4c(c3)c(c(-c3cccnc3[C@H](C)OC)n4CC)CC(C)(C)COC(=O)[C@@H]3CCCN(N3)C2=O)C(C)C)[C@H]2C[C@H]21 (atropisomer, axis not shown) [Example A737] | 0.01 to 0.1 | < 5 | –
C=CS(=O)(=O)N1CCC(C(=O)N(C)[C@H](C(=O)N[C@H]2Cc3nc(cs3)-c3ccc4c(c3)c(c(-c3cncnc3)n4CC)CC(C)(C)COC(=O)[C@@H]3CCCN(N3)C2=O)C(C)C)C1 (single isomer, unassigned) [Example A170] | > 10 | < 5 | –
C=CS(=O)(=O)N1CCC(C(=O)N(C)[C@H](C(=O)N[C@H]2Cc3cccc(c3)-c3ccc4c(c3)c(c(-c3cncnc3)n4CC)CC(C)(C)COC(=O)[C@@H]3CCCN(N3)C2=O)C(C)C)C1 (single isomer, unassigned) [Example A171] | > 10 | < 5 | –
C=CC(=O)N1CC[C@H](C(=O)N(C)[C@H](C(=O)N[C@H]2Cc3cc(ccn3)-c3ccc4c(c3)c(c(-c3cccnc3COC)n4CC)CC(C)(C)COC(=O)[C@@H]3CCCN(N3)C2=O)C(C)C)C1 [Example A136] | > 10 | < 5 | –
C=CC(=O)N1CC[C@H](C(=O)N(C)[C@H](C(=O)N[C@H]2Cc3cc(O)cc(c3)-c3ccc4c(c3)c(c(-c3cncs3)n4CC)CC(C)(C)COC(=O)[C@@H]3CCCN(N3)C2=O)C(C)C)C1 [Example A143] | 1 to 10 | < 5 | –
C=CC(=O)N1CC[C@H](C(=O)N(C)[C@H](C(=O)N[C@H]2Cc3cc(O)cc(c3)-c3ccc4c(c3)c(c(-c3cccc(=O)n3C(C)C)n4CC)CC(C)(C)COC(=O)[C@@H]3CCCN(N3)C2=O)C(C)C)C1 [Example A151] | 1 to 10 | < 5 | –
C=CC(=O)N1CC[C@H](C(=O)N(C)[C@H](C(=O)N[C@H]2Cc3cc(O)cc(c3)-c3ccc4c(c3)c(c(-c3cccnc3)n4[C@H](C)C#N)CC(C)(C)COC(=O)[C@@H]3CCCN(N3)C2=O)C(C)C)C1 [Example A193] | 1 to 10 | – | < 5
C=CC(=O)N1CC[C@H](C(=O)N(C)[C@H](C(=O)N[C@H]2Cc3cc(O)cc(c3)-c3ccc4c(c3)c(c(-c3c(C)cccc3C)n4CC)CC(C)(C)COC(=O)[C@@H]3CCCN(N3)C2=O)C(C)C)C1 [Example A226] | > 10 | < 5 | –
C=CC(=O)N1CC[C@H](C(=O)N(C)[C@H](C(=O)N[C@H]2Cc3cc(O)cc(c3)-c3ccc4c(c3)c(c(-c3cccc5c3COC5)n4CC)CC(C)(C)COC(=O)[C@@H]3CCCN(N3)C2=O)C(C)C)C1 [Example A227] | 1 to 10 | < 5 | –
C=CC(=O)N1CC[C@H](C(=O)N(C)[C@H](C(=O)N[C@H]2Cc3cc(O)cc(c3)-c3ccc4c(c3)c(c(-c3ncn(C)c3[C@H](C)OC)n4CC)CC(C)(C)COC(=O)[C@@H]3CCCN(N3)C2=O)C(C)C)C1 [Example A301] | > 10 | < 5 | –
C=CC(=O)N1CC[C@H](C(=O)N(C)[C@H](C(=O)N[C@H]2Cc3cc(O)cc(c3)-c3ccc4c(c3)c(c(-c3cnc(N(C)C)s3)n4CC)CC(C)(C)COC(=O)[C@@H]3CCCN(N3)C2=O)C(C)C)C1 [Example A302] | > 10 | < 5 | –
C=CC(=O)N1CC[C@H](C(=O)N(C)[C@H](C(=O)N[C@H]2Cc3cc(O)cc(c3)-c3ccc4c(c3)c(c(-c3csc(N(C)C)n3)n4CC)CC(C)(C)COC(=O)[C@@H]3CCCN(N3)C2=O)C(C)C)C1 [Example A303] | > 10 | < 5 | –
C=CC(=O)N1CCOC2(CCN(C(=O)N(C)[C@H](C(=O)N[C@H]3C[C@H]4CN(CCO4)c4ccc5c(c4)c(c(-c4cccnc4[C@H](C)OC)n5CC)CC(C)(C)COC(=O)[C@@H]4CCCN(N4)C3=O)C(C)C)CC2)C1 [Example A564] | 1 to 10 | < 5 | –
CCn1c(-c2cccnc2[C@H](C)OC)c2c3cc(ccc31)-c1cccc(c1)CC(NC(=O)[C@H](C(C)C)N1CC[C@]3(CCN(C(=O)C#C[C@@H]4COCCN4C4COC4)C3)C1=O)C(=O)N1CCC[C@H](N1)C(=O)OCC(C)(C)C2 (stereo partly shown) [Example A565] | > 10 | < 5 | –
C=CC(=O)N1CC[C@H](C(=O)N(C)[C@H](C(=O)N[C@H]2Cc3cccc(c3)-c3ccc4c(c3)c(c(-c3cccnc3[C@H](C)OC)n4CC)CC(C)(C)COC(=O)[C@@H]3CCCN(N3)C2=O)C(C)C(F)(F)F)C1 (stereo partly shown) [Example A641] | 1 to 10 | < 5 | –
CCn1c(-c2cccnc2[C@H](C)OC)c2c3cc(ccc31)C1CCCN(C1)C[C@H](NC(=O)[C@@H](COC1CN(C(=O)C#CC(C)(C)N(C)C)C1)C(C)C)C(=O)N1CCC[C@H](N1)C(=O)OCC(C)(C)C2 [Example A646, (2R)-2-(((1-(4-(dimethylamino)-4-methylpent-2-ynoyl)azetidin-3-yl)oxy)methyl)-N-((6^3S,4S)-1^1-ethyl-1^2-(2-((S)-1-methoxyethyl)pyridin-3-yl)-10,10-dimethyl-5,7-dioxo-6^1,6^2,6^3,6^4,6^5,6^6-hexahydro-1^1H-8-oxa-1(5,3)-indola-6(1,3)-pyridazina-2(3,1)-piperidinacycloundecaphane-4-yl)-3-methylbutanamide] | > 10 | < 5 | –
C=CC(=O)C1CC[C@H](C(=O)N(C)[C@H](C(=O)N[C@H]2Cc3nsc(n3)-c3ccc4c(c3)c(c(-c3cccnc3[C@H](C)OC)n4CC)CC(C)(C)COC(=O)[C@@H]3CCCN(N3)C2=O)C(C)C)C1 (stereo partly shown) [Example A694] | 0.1 to 1 | < 5 | –
